The source of these data is patent US9133115B2 (ACHILLION PHARMACEUTICALS, INC., priority 2008, dated 2015).

pEC50: −log10 of the molar value.

The subject of the test is HCV replicon. As to the kind of experiment: HCV replicon replication assay (NPT ELISA) in Huh-7 replicon-containing cells. The class given is cell-based. As to conditions: Hepatitis C virus, 72 h; HCV replicon in Huh-7 cells, three days incubation; read-out: EC50. In a few lines: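 Huh-7 cells carrying a bicistronic HCV replicon (HCV-IRES-neo, EMCV-IRES-driven NS3–NS5B, 3′-NTR) were seeded at 6000-7500 cells/well, grown 24 h to 60-70% confluence, then treated with graded compound concentrations. Replication was read as NPT level by capture ELISA (rabbit anti-NPTII, Eu-N1 secondary); interferon alpha served as positive control.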
As to `C=C[C@@H]1C[C@]1(NC(=O)[C@@H]1C[C@@H](Oc2cc(-c3ccccc3)nc3cc(OC)ccc23)CN1C(=O)[C@@H](CC(=O)N1CCC1)C(C)(C)C)C(=O)NS(=O)(=O)C1CC1` [Compound 222, (2S,4R)-1-((S)-4-(azetidin-1-yl)-2-tert-butyl-4-oxobutanoyl)-N-((1R)-1-(cyclopropyl-sulfonylcarbamoyl)-2-vinylcyclopropyl)-4-(7-methoxy-2-phenylquinolin-4-yloxy)pyrrolidine-2-carboxamide], the pEC50 was > 6.00. The same measure for `C=C[C@@H]1C[C@]1(NC(=O)[C@@H]1C[C@@H](Oc2cc(-c3ccccc3)nc3cc(OC)ccc23)CN1C(=O)[C@@H](CC(=O)N1CCN(c2cnccn2)CC1)C(C)(C)C)C(=O)NS(=O)(=O)C1CC1` [Compound 196, (2S,4R)-1-((S)-2-tert-butyl-4-oxo-4-(4-(pyrazin-2-yl)piperazin-1-yl)butanoyl)-N-((1R,2S)-1-(cyclopropyl-sulfonylcarbamoyl)-2-vinylcyclopropyl)-4-(7-methoxy-2-phenylquinolin-4-yloxy)pyrrolidine-2-carboxamide]: > 6.00. In the case of `C=C[C@@H]1C[C@]1(NC(=O)[C@@H]1C[C@@H](Oc2cc(-c3ccccc3)cc3cc(OC)ccc23)CN1C(=O)[C@@H](CC(=O)N1CCCCC1)C(C)(C)C)C(=O)NS(=O)(=O)C1CC1` [Compound 233, (2S,4R)-1-((S)-2-tert-butyl-4-oxo-4-(piperidin-1-yl)butanoyl)-N-((1R)-1-(cyclopropyl-sulfonylcarbamoyl)-2-vinylcyclopropyl)-4-(6-methoxy-3-phenylnaphthalen-1-yloxy)pyrrolidine-2-carboxamide] it was > 6.00. In the case of `C=CC1CC1(NC(=O)[C@@H]1C[C@@H](Oc2cc(-c3ccccc3)nc3cc(OC)ccc23)CN1C(=O)[C@@H](CC(=O)N1CCC(CCC)CC1)C(C)(C)C)C(=O)NS(=O)(=O)C1CC1` (stereo partly drawn) [Compound 43, (2S,4R)-1-((S)-2-tert-butyl-4-oxo-4-(4-propylpiperidin-1-yl)butanoyl)-N-(1-(cyclopropyl-sulfonyl-carbamoyl)-2-vinylcyclopropyl)-4-(7-methoxy-2-phenylquinolin-4-yloxy)pyrrolidine-2-carboxamide] it was 5.00 to 6.00; in that of `C=C[C@@H]1C[C@]1(NC(=O)[C@@H]1C[C@@H](Oc2cc(-c3ccccn3)nc3cc(OC)ccc23)CN1C(=O)[C@@H](CC(=O)N1CCC(F)(F)CC1)C(C)(C)C)C(=O)NS(=O)(=O)C1CC1` [Compound 216, (2S,4R)-1-((S)-2-tert-butyl-4-(4,4-difluoropiperidin-1-yl)-4-oxobutanoyl)-N-((1R)-1-(cyclo-propylsulfonyl-carbamoyl)-2-vinylcyclopropyl)-4-(7-methoxy-2-(pyridin-2-yl)quinolin-4-yloxy)pyrrolidine-2-carboxamide], > 6.00. As for `C=C[C@@H]1C[C@]1(NC(=O)[C@@H]1C[C@@H](Oc2cc(-c3ccccc3)nc3cc(OC)ccc23)CN1C(=O)[C@@H](CC(=O)N1CCCCC1)C(C)(C)C)C(=O)NS(=O)(=O)CC` [Compound 120, (2S,4R)-1-((S)-2-tert-butyl-4-oxo-4-(piperidin-1-yl)butanoyl)-N-((1R,2S)-1-(ethyl-sulfonylcarbamoyl)-2-vinylcyclopropyl)-4-(7-methoxy-2-phenylquinolin-4-yloxy)pyrrolidine-2-carboxamide], the pEC50 is > 6.00. The same measure for `C=C[C@@H]1C[C@]1(NC(=O)[C@@H]1C[C@@H](Oc2cc(-c3ccccn3)nc3c4c(ccc23)CCC4)CN1C(=O)[C@@H](CC(=O)N1CCC(C(F)(F)F)CC1)C(C)(C)C)C(=O)NS(=O)(=O)C1CC1` [Compound 237, (2S,4R)-1-((S)-2-tert-butyl-4-oxo-4-(4-(trifluoro-methyl)piperidin-1-yl)butanoyl)-N-((2S)-1-(cyclopropyl-sulfonylcarbamoyl)-2-vinylcyclopropyl)-4-(2-(pyridin-2-yl)-8,9-dihydro-7H-cyclopenta[h]quino-lin-4-yloxy)pyrrolidine-2-carboxamide]: > 6.00; for `C=C[C@@H]1C[C@]1(NC(=O)[C@@H]1C[C@@H](Oc2cc(-c3ccccn3)c3ccc4c(c3n2)CCO4)CN1C(=O)[C@@H](CC(=O)N1CCCCC1)C(C)(C)C)C(=O)NS(=O)(=O)C1CC1` [Compound 150, (2S,4R)-1-((S)-2-tert-butyl-4-oxo-4-(piperidin-1-yl)butanoyl)-N-((1R,2S)-1-(cyclo-propylsulfonyl-carbamoyl)-2-vinylcyclopropyl)-4-(4-(pyridin-2-yl)-8,9-dihydrofuro[2,3-h]quinolin-2-yloxy)pyrrolidine-2-carboxamide]: > 6.00; for `C=CC1CC1(NC(=O)[C@@H]1C[C@@H](OC(=O)N2Cc3cccc(F)c3C2)CN1C(=O)[C@@H](CC(=O)N1CCCCC1)C(C)(C)C)C(=O)NS(=O)(=O)C1CC1` (stereo partly drawn) [Compound 50, (3R,5S)-1-((S)-2-tert-butyl-4-oxo-4-(piperidin-1-yl)butanoyl)-5-(1-(cyclopropyl-sulfonylcarbamoyl)-2-vinylcyclopropyl-carbamoyl)pyr-rolidin-3-yl 4-fluoroisoindoline-2-carboxylate]: > 6.00. In the case of `C=CC1CC1(NC(=O)C1C[C@@H](Oc2cc(-c3ccccc3)nc3cc(OC)ccc23)CN1C(=O)[C@@H](CC(=O)N1CCCCC1)C1CCCCC1)C(=O)NS(=O)(=O)C1CC1` (stereo partly drawn) [Compound 53, (4R)-1-((S)-2-cyclohexyl-4-oxo-4-(piperidin-1-yl)butanoyl)-N-(1-(cyclopropyl-sulfonylcarbamoyl)-2-vinylcyclopropyl)-4-(7-methoxy-2-phenylquinolin-4-yloxy)pyrrolidine-2-carboxamide] it was > 6.00.

As to `C=C[C@@H]1C[C@]1(NC(=O)[C@@H]1C[C@@H](Oc2cc(-c3ccccc3)nc3cc(OC)ccc23)CN1C(=O)[C@@H](CC(=O)N1CCCC[C@H]1c1cccnc1)C(C)(C)C)C(=O)NS(=O)(=O)C1CC1` [Compound 140, (2S,4R)-1-((S)-2-tert-butyl-4-oxo-4-((S)-2-(pyridin-3-yl)piperidin-1-yl)butanoyl)-N-((1R,2S)-1-(cyclo-propylsulfonyl-carbamoyl)-2-vinylcyclopropyl)-4-(7-methoxy-2-phenylquinolin-4-yloxy)pyrrolidine-2-carboxamide], the pEC50 is > 6.00.

With `COc1ccc2c(O[C@@H]3C[C@@H](C(=O)NC4(C(=O)NS(=O)(=O)C5CC5)CCC4)N(C(=O)[C@@H](CC(=O)N4CCCCC4)C(C)(C)C)C3)cc(-c3ccccc3)nc2c1` [Compound 97, (2S,4R)-1-((S)-2-tert-butyl-4-oxo-4-(piperidin-1-yl)butanoyl)-N-(1-(cyclopropylsulfonyl-carbamoyl)cyclo-butyl)-4-(7-methoxy-2-phenylquinolin-4-yloxy)pyrrolidine-2-carboxamide], the pEC50 was 5.00 to 6.00. The same measure for `C=C[C@@H]1C[C@]1(NC(=O)[C@@H]1C[C@@H](Oc2cc(-c3ccccc3)nc3cc(OC)ccc23)CN1C(=O)[C@@H](CC(=O)N1CCCCC1c1nc2cc(F)ccc2[nH]1)C(C)(C)C)C(=O)NS(=O)(=O)C1CC1` (stereo partly drawn) [Compound 125, (2S,4R)-1-((2S)-2-tert-butyl-4-(2-(5-fluoro-1H-benzo[d]imidazol-2-yl)piperidin-1-yl)-4-oxobutanoyl)-N-((1R,2S)-1-(cyclo-propylsulfonyl-carbamoyl)-2-vinylcyclopropyl)-4-(7-methoxy-2-phenylquinolin-4-yloxy)pyrrolidine-2-carboxamide]: > 6.00; for `C=CC1CC1(NC(=O)[C@@H]1C[C@@H](Oc2cc(-c3ccccc3)nc3cc(OC)ccc23)CN1C(=O)[C@@H](CC(=O)N1CCCc2ccccc21)C(C)(C)C)C(=O)NS(=O)(=O)C1CC1` (stereo partly drawn) [Compound 41, (2S,4R)-1-((S)-2-tert-butyl-4-(3,4-dihydroquinolin-1(2H)-yl)-4-oxobutanoyl)-N-(1-(cyclopropyl-sulfonyl-carbamoyl)-2-vinylcyclopropyl)-4-(7-methoxy-2-phenylquinolin-4-yloxy)pyrrolidine-2-carboxamide]: > 6.00. In the case of `C=C[C@@H]1C[C@]1(NC(=O)[C@@H]1C[C@@H](NC(=O)n2c3ccccc3c3ccccc32)CN1C(=O)[C@@H](CC(=O)N1CCCCC1)C(C)(C)C)C(=O)NS(=O)(=O)C1CC1` [Compound 177, N-((3R,5S)-1-((S)-2-tert-butyl-4-oxo-4-(piperidin-1-yl)butanoyl)-5-((1R,2S)-1-(cyclopropyl-sulfonylcarbamoyl)-2-vinylcyclopropyl-carbamoyl)pyr-rolidin-3-yl)-9H-carbazole-9-carboxamide] it was > 6.00; in that of `C=C[C@@H]1C[C@]1(NC(=O)[C@@H]1C[C@@H](OC(=O)N2c3ccccc3C=Cc3ccccc32)CN1C(=O)[C@@H](CC(=O)N1CCCCC1)C(C)(C)C)C(=O)NS(=O)(=O)C1CC1` [Compound 131, (Z)-((3R,5S)-1-((S)-2-tert-butyl-4-oxo-4-(piperidin-1-yl)butanoyl)-5-((1R,2S)-1-(cyclopropylsulfon-ylcarbamoyl)-2-vinylcyclopropyl-carbamoyl)pyr-rolidin-3-yl)5H-dibenzo[b,f]azepine-5-carboxylate], 5.00 to 6.00; in that of `C=C[C@@H]1CC1(NC(=O)[C@@H]1C[C@@H](Oc2cc(-c3ccccn3)nc3c(C)c(OC)ccc23)CN1C(=O)[C@@H](CC(=O)N1CCC(C(F)(F)F)CC1)C(C)(C)C)C(=O)NS(=O)(=O)C1CC1` (mixture of isomers) [Compound 249, (2S,4R)-1-((S)-2-tert-butyl-4-oxo-4-(4-(trifluoro-methyl)piperidin-1-yl)butanoyl)-N-((S)-1-(cyclopropyl-sulfonylcarbamoyl)-2-vinylcyclopropyl)-4-(7-methoxy-8-methyl-2-(pyridin-2-yl)quinolin-4-yloxy)pyrrolidine-2-carboxamide], > 6.00.
